Measured values published in paper PMC5354814, “In silico and in vitro drug screening identifies new therapeutic approaches for Ewing sarcoma” (Oncotarget, 2016).
Structures can show the parent of a compound that is named as a salt. Where two headings read alike, the source gives them in different places.

How the values were obtained:
Assay type in all cases: cell-based
Hs 919.T. [1] = experiment: Hits validation, dose-response cell proliferation (CellTiter-Glo)
Experimental: These drugs were chosen based on their known mechanisms and safety profiles. We also tested the synergy between these drug hits (Supplementary Figures S6–S11). […] We evaluated the anti-proliferation effect in combination treatments using the EWS and control cell lines.
(§1) For hits validation and combination study, cells were harvested and aliquoted into 384-well plates at concentrations of 750–1,500 cells per well in a total of 20 μl/well using a Matrix Wellmate (Thermo Scientific). Five μl of culture media containing either vehicles or drug were added to each well the next day (drug concentrations range from 1 nmol/L to 50 μmol/L). For combination study, selected drugs were archived in robotically accessible plates, to which media was added in preparation for addition to master plates by a Nimbus 96 liquid-dispensing workstation (Hamilton). Liquid transfers to dilution and assay plates were handled using the same workstation. Each 384-well master plate contained four 9 by 9 dose-matrix blocks, with eight serial two-fold dilutions (concentrations range from 7.8 nmol/L to 1 μmol/L). Additional wells were reserved for untreated, and vehicle-treated control wells. Cell proliferation was evaluated using Cell-Titer Glo® reagents (Promega). IC50 values were determined for each drug using SigmaPlot (Systat Software). The combination index values were calculated using SigmaPlot (Systat Software) and CompuSyn.

Hs 863.T. = experiment: as above
Experimental: as §1

RD-ES [2] = experiment: as above
Experimental: as §1

CHLA-258 = experiment: as above
Experimental: as §1

Hs 822.T. = experiment: as above
Experimental: as §1

A673 [3] = experiment: as above
Experimental: as §1

TC-71 = experiment: as above
Experimental: as §1

SK-ES-1 [4] = experiment: as above; settings: Homo sapiens, SK-ES1; 12-point dose-response 50 μmol/L to 1 nmol/L, mean ± SD
Experimental: as §1

COG-E-352 = experiment: as above
Experimental: as §1

RD-ES [5] = experiment: In vitro high-throughput screen of FDA-approved drug library (CellTiter-Glo); settings: 1 μmol/L drug, 72 hours; for inhibition at 1 µM: RD-ES, read-out: % Inhibition RD-ES
Experimental: (§2) We screened, in parallel to the three computational approaches, an FDA-approved drug library containing 2,316 drugs (1,536 unique chemical entities). […] The drug screening study protocol employed is summarized in Supplementary Table S1.
(§3) Cells were grown to 80–90% confluence, harvested and aliquoted into 384-well plates (black μClear microplates, Greiner bio-one, Germany) at concentrations of 750–1,500 cells per well in a total volume of 25 μl/well using a Matrix Wellmate (Thermo Scientific). Cells were cultured for 72 hours in a 5% CO2 atmosphere at 37°C. Aliquots of 25 μl CellTiter-Glo® Reagent (Promega) were added directly to each well, the plates were incubated at room temperature for 20 min and the luminescence signal was measured according to the manufacturer's protocol. The measurements were made using Infinite® M200 Pro plate reader (Tecan, Switzerland). […] Data were normalized to percentage inhibition. […]
(§4) (A) Color scale for drug inhibition values. […]

Hs 919.T. [6] = experiment: as above; settings: 1 μmol/L drug, 72 hours, control cell line; for inhibition at 1 µM: read-out: % Inhibition Hs 919.T.
Experimental: as §2, §3, §4

A673 [7] = experiment: as above; settings: 1 μmol/L drug, 72 hours; for inhibition at 1 µM: Homo sapiens, A673, read-out: % Inhibition A673
Experimental: as §2, §3, §4

SK-ES-1 [8] = experiment: as above; settings: 1 μmol/L drug, 72 hours; for inhibition at 1 µM: Homo sapiens, SK-ES1, read-out: % Inhibition SK-ES-1
Experimental: as §2, §3, §4

[9] = control cell line, 12-point dose-response, mean ± SD
[10] = RD-ES, 12-point dose-response 50 μmol/L to 1 nmol/L, mean ± SD
[11] = 12-point dose-response 50 μmol/L to 1 nmol/L, mean ± SD
[12] = Homo sapiens, A673, 12-point dose-response 50 μmol/L to 1 nmol/L, mean ± SD
[13] = TC-71, 12-point dose-response 50 μmol/L to 1 nmol/L, mean ± SD

Row | Compound | inhibition at 1 µM (RD-ES [5]) [%] | inhibition at 1 µM (Hs 919.T. [6]) [%] | inhibition at 1 µM (A673 [7]) [%] | inhibition at 1 µM (SK-ES-1 [8]) [%] | also measured
1 | COc1ccc(C[C@H](N)C(=O)N[C@H]2[C@@H](O)[C@H](n3cnc4c(N(C)C)ncnc43)O[C@@H]2CO)cc1 [Puromycin] |  |  |  |  | IC50 (Hs 919.T. [1]; [9]): 0.89 ± 0.03 µM; IC50 (Hs 863.T.; [9]): 1.02 ± 0.26 µM; IC50 (RD-ES [2]; [10]): 0.35 ± 0.03 µM; IC50 (CHLA-258; [11]): 0.06 ± 0.02 µM; IC50 (Hs 822.T.; [9]): 0.55 ± 0.13 µM; IC50 (A673 [3]; [12]): 0.25 ± 0.01 µM; IC50 (TC-71; [13]): 0.08 ± 0.05 µM; IC50 (SK-ES-1 [4]): 0.35 ± 0.1 µM; IC50 (COG-E-352; [11]): 0.05 ± 0.01 µM
2 | CCC(C)(C)C(=O)O[C@H]1C[C@@H](C)C=C2C=C[C@H](C)[C@H](CC[C@@H]3C[C@@H](O)CC(=O)O3)[C@H]21 [Simvastatin] |  |  |  |  | IC50 (Hs 919.T. [1]; [9]): 2.88 ± 0.58 µM; IC50 (Hs 863.T.; [9]): 4.1 ± 0.56 µM; IC50 (RD-ES [2]; [10]): 3.25 ± 0.14 µM; IC50 (CHLA-258; [11]): 0.25 ± 0.13 µM; IC50 (Hs 822.T.; [9]): 2.08 ± 0.84 µM; IC50 (A673 [3]; [12]): 0.58 ± 0.05 µM; IC50 (TC-71; [13]): 4.33 ± 3.86 µM; IC50 (SK-ES-1 [4]): 3.86 ± 0.89 µM; IC50 (COG-E-352; [11]): 10.5 ± 1.7 µM
3 | CN1CCN(CCCN2c3ccccc3Sc3ccc(C(F)(F)F)cc32)CC1 [Trifluoperazine] |  |  |  |  | IC50 (Hs 919.T. [1]; [9]): 16.8 ± 4.2 µM; IC50 (Hs 863.T.; [9]): 9.84 ± 2.28 µM; IC50 (RD-ES [2]; [10]): 18.2 ± 2.54 µM; IC50 (CHLA-258; [11]): 13.6 ± 4.8 µM; IC50 (Hs 822.T.; [9]): 10.6 ± 2.45 µM; IC50 (A673 [3]; [12]): 15.6 ± 3.55 µM; IC50 (TC-71; [13]): 16.4 ± 3.46 µM; IC50 (SK-ES-1 [4]): 16.7 ± 3.14 µM; IC50 (COG-E-352; [11]): 12.1 ± 1.58 µM
4 | C[n+]1cc2c3c(ccc2c2ccc4cc5c(cc4c21)OCO5)OCO3 [Sanguinarine] |  |  |  |  | IC50 (Hs 919.T. [1]; [9]): 1.44 ± 0.32 µM; IC50 (Hs 863.T.; [9]): 1.25 ± 0.14 µM; IC50 (RD-ES [2]; [10]): 1.5 ± 0.12 µM; IC50 (CHLA-258; [11]): 0.95 ± 0.31 µM; IC50 (Hs 822.T.; [9]): 1.55 ± 0.26 µM; IC50 (A673 [3]; [12]): 0.75 ± 0.14 µM; IC50 (TC-71; [13]): 0.2 ± 0.08 µM; IC50 (SK-ES-1 [4]): 1.87 ± 0.51 µM; IC50 (COG-E-352; [11]): 1.05 ± 0.18 µM
5 | N=c1ccn2c(n1)O[C@H]1[C@H](O)[C@@H](CO)O[C@H]12 [Cyclocytidine] | 83 | < 50 | 86 | 98 | 
6 | CC[C@@]1(O)C(=O)OCc2c1cc1n(c2=O)Cc2cc3c(CN(C)C)c(O)ccc3nc2-1 [Topotecan HCl] | 97 | < 50 | 97 | 96 | 
7 | S=c1[nH]cnc2nc[nH]c12 [Mercaptopurine] | < 50 | < 50 | < 50 | 57 | 
8 | COC(=O)Nc1nc2ccc(Sc3ccccc3)cc2[nH]1 [Fenbendazole] | 86 | < 50 | 75 | 78 | 
9 | COC(=O)Nc1nc2ccc(C(=O)c3ccccc3)cc2[nH]1 [Mebendazole] | 95 | < 50 | 94 | 96 | 
10 | (R)-Apomorphine |  |  |  |  | IC50 (Hs 919.T. [1]): 16.7 ± 3.02 µM; IC50 (Hs 863.T.): 15.2 ± 2.19 µM; IC50 (RD-ES [2]): 7.85 ± 1.69 µM; IC50 (CHLA-258): 14.7 ± 6.86 µM; IC50 (Hs 822.T.): 14.3 ± 1.47 µM; IC50 (A673 [3]): 8.52 ± 2.14 µM; IC50 (TC-71): 17.3 ± 2.21 µM; IC50 (COG-E-352): 4.01 ± 1.55 µM
11 | COc1cc([C@@H]2c3cc4c(cc3[C@@H](O[C@@H]3O[C@@H]5CO[C@@H](C)O[C@H]5[C@H](O)[C@H]3O)[C@H]3COC(=O)[C@H]23)OCO4)cc(OC)c1O [Etoposide] | 84 | < 50 | < 50 | 84 | 
12 | Cn1cnc([N+](=O)[O-])c1Sc1ncnc2nc[nH]c12 [Azathioprine] | < 50 | < 50 | < 50 | 52 | 
13 | CO[C@@H]1[C@@H](OC(N)=O)[C@@H](O)[C@H](Oc2ccc3c(O)c(NC(=O)c4ccc(O)c(CC=C(C)C)c4)c(=O)oc3c2C)OC1(C)C [Novobiocin sodium] | 51 | < 50 | 60 | < 50 | 
14 | C[C@@H]1C[C@@H]([C@H](O)CC2CC(=O)NC(=O)C2)C(=O)[C@@H](C)C1 [Cycloheximide] | 74 | < 50 | 77 | 81 | 
15 | C=C1[C@@H]2CC[C@H]3[C@]4(C)C[C@H](O[C@@H]5O[C@H](CO)[C@@H](OS(=O)(=O)[O-])[C@H](OS(=O)(=O)[O-])[C@H]5OC(=O)CC(C)C)C[C@@H](C(=O)O)[C@H]4CC[C@]3(C2)[C@H]1O.[K+].[K+] [Atractyloside potassium salt] |  |  |  |  | % Inhibition RD-ES (RD-ES [5]): 98%; % Inhibition Hs 919.T. (Hs 919.T. [6]): < 50%; % Inhibition A673 (A673 [7]): 99%; % Inhibition SK-ES-1 (SK-ES-1 [8]): 99%
16 | CC(=O)O[C@H]1C(=O)[C@@]2(C)[C@H]([C@H](OC(=O)c3ccccc3)[C@]3(O)C[C@H](OC(=O)[C@H](O)[C@@H](NC(=O)c4ccccc4)c4ccccc4)C(C)=C1C3(C)C)[C@]1(OC(C)=O)CO[C@@H]1C[C@@H]2O [Paclitaxel/Taxol, Paclitaxel] | 97 | < 50 | 96 | 96 | 
17 | Nc1nc(Cl)nc2c1ncn2[C@@H]1O[C@H](CO)[C@@H](O)[C@@H]1F [Clofarabine] | 99 | < 50 | 93 | 98 | 
18 | O=c1[nH]c(=O)n([C@H]2C[C@H](O)[C@@H](CO)O2)cc1C(F)(F)F [Trifluridine] | 71 | < 50 | < 50 | < 50 | 
19 | C[C@]12CCC(=O)C=C1CC[C@@H]1[C@@H]2CC[C@@]2(C)[C@H]1CC[C@]2(C)O [Methyltestosterone] | 73 | < 50 | < 50 | < 50 | 
20 | Nc1nc(O)c2[nH]nnc2n1 [Azaguanine-8] |  |  |  |  | % Inhibition RD-ES (RD-ES [5]): < 50%; % Inhibition Hs 919.T. (Hs 919.T. [6]): < 50%; % Inhibition A673 (A673 [7]): 83%; % Inhibition SK-ES-1 (SK-ES-1 [8]): < 50%
21 | CCCOc1ccc2nc(NC(=O)OC)[nH]c2c1 [Oxibendazole] | 80 | < 50 | 64 | 84 | 
22 | Nc1ccn([C@@H]2O[C@H](CO)[C@@H](O)[C@@H]2O)c(=O)n1 [Cytosine β-D-arabinofuranoside] |  |  |  |  | % Inhibition RD-ES (RD-ES [5]): 93%; % Inhibition Hs 919.T. (Hs 919.T. [6]): < 50%; % Inhibition A673 (A673 [7]): 84%; % Inhibition SK-ES-1 (SK-ES-1 [8]): 98%
